Measurements from US11685713B2, “Small molecule SHC blockers used for treating liver disease and metabolic disease” (Buto Corporation, priority 2019, dated 2023).

Experiments:
[1] = system: Methionine Choline-Deficient (MCD) Mouse model NASH; experiment: Liver fibrosis markers in the MCD model of Non-alcoholic Steatohepatitis (NASH); type: in vivo; settings: mice, MCD 8 weeks, 20 mg/kg orally the last 4 weeks, vs placebo
[2] = system: Methionine Choline-Deficient (MCD) Mouse model NASH; experiment: as above; type: in vivo; settings: mice, MCD 8 weeks, 20 mg/kg orally the last 4 weeks, vs placebo; remark: listed apart in the source
Procedure: Mice were fed the Liver fibrosis-inducing Methionine Choline-Deficient (MCD) Mouse model NASH for 8 weeks, and the last 4 weeks they were dosed orally with 20 mg/kg of compound number 3 (RTX60933293), compound number 5 (RTX73145433), or placebo. After 8 weeks of MCD dosing, mice were sacrificed, and livers were extracted for nucleic acids and classical markers of liver fibrosis were assayed by QRTPCR.
Without wishing to be bound by theory, NASH could be considered the next-most common metabolic disturbance after Type 2 Diabetes in the USA, and currently has no approved treatment. There is a usual progression from NAFLD (fatty liver) to the more fibrotic/cirrhotic NASH. While the precise mechanism of the transition of NAFLD to NASH is not completely understood, hepatocyte death and resulting fibrosis has been proposed. Fibrosis and fibrotic scarring are thought to be the most important pathophysiological endpoints to end-stage NASH, which typically necessitates an expensive and difficult liver transplant. As shown in other examples, Shc blockers through their sensitization to insulin, IGF-1 and other growth factors, are cytoprotective. Thus, by inhibiting hepatocyte death which promotes fibrosis, they should also be anti-fibrotic.

[3] = system: Corticosterone model of Insulin resistance; experiment: Glucose Tolerance Test in the Corticosterone model of Insulin resistance; type: in vivo, mice; settings: for glucose tolerizing effect in the Corticosteroid model: FIG. 3, summary in Example 1E; for GTT: glucose intolerance at time points after glucose administration / GTT Area Under the Curve (AUC): glucose intolerance relative to placebo: mice, corticosterone 21 days, 10 mg/kg i.p. for the final 5 days; for GTT: glucose intolerance at time points after glucose administration: FIG. 3 A/B; for GTT Area Under the Curve (AUC): glucose intolerance relative to placebo: FIG. 3 C
Procedure: In a standard model of glucose intolerance and insulin insensitivity, corticosterone (CS) was dosed for 21 days, and in the drug treated group mice were administered Shc Blocker #3=RTX60933293 or #5=RTX73145433 at a dose of 10 mg/kg i.p. for the final 5 days of the 21-day CS treatment. […] By blocking the interaction of Shc protein with phosphotyrosines on the Insulin Receptor, a Shc blocker redirects more signaling to the insulin-sensitizing and glucose tolerizing phospho-Akt. Thus, peripheral cells become more sensitive per molecule insulin, and consequently more glucose tolerant. This prediction is borne out in the Corticosteroid model. Corticosterone is a known model of Type 2 Diabetes and Metabolic Syndrome, as Corticosterone induces peripheral insulin insensitivity.

Compound | liver fibrosis bio marker hydroxyproline [1] | Collagen 1a1 (Col1), liver, QRTPCR [2] | Matrix Metalloproteinase 2 (MMP2), liver, QRTPCR [2] | Tissue metallopeptidase inhibitor 1 (TIMP1), liver, QRTPCR [2] | Transforming Growth Factor beta (TGF-b), liver, QRTPCR [2] | alpha-smooth muscle actin (aSMA), liver, QRTPCR [2] | glucose tolerizing effect in the Corticosteroid model [3] | GTT: glucose intolerance at time points after glucose administration [3] | GTT Area Under the Curve (AUC): glucose intolerance relative to placebo [3]
O=C(c1cccc(-n2cccc2)c1)N1CCOC(c2cccc(OC(F)F)c2)C1 (stereo not drawn) [Compound 5] | significantly reduced | significantly reduced | significantly reduced | significantly reduced | significantly reduced | significantly reduced | significantly glucose tolerizing | reduced glucose significantly at 2 time points | significantly reduced glucose intolerance
O=C(NCCS(=O)(=O)Cc1ccccc1)N1CC=C(c2cccc3ccccc23)C1 [Compound 3] | significantly reduced | significantly reduced | significantly reduced | significantly reduced | significantly reduced | significantly reduced | significantly glucose tolerizing | reduced glucose intolerance significantly at 4 time points | significantly reduced glucose intolerance
